{
  "source": "patent US10098887B2",
  "about": "“Antiviral compounds and methods of use thereof” (Trana Discovery, Inc., priority 2010, dated 2018)",
  "data": [
    {"test": "assays described herein (not specified)", "values": [
      {"smiles": "CNC(=S)N1N=C(c2ccc(OC)cc2)CC1c1ccc(N(C)C)cc1", "note": "(stereo not drawn) [Compound 40, 5-[4-(dimethylamino)phenyl]-3-(4-methoxyphenyl)-N-methyl-4,5-dihydro-1H-pyrazole-1-carbothioamide]", "active in the assays described herein": "active"},
      {"smiles": "CN(C)c1ccc(C(O)(c2ccc(N(C)C)cc2)c2ccc(N(C)C)cc2)cc1", "note": "[Compound 7, tris[4-(dimethylamino)phenyl]methanol]", "active in the assays described herein": "active"},
      {"smiles": "CCc1ccc(N2N=C(C)C(=Cc3cc(OC)c(O)c(OC)c3)C2=O)cc1", "note": "[Compound 72, 2-(4-ethylphenyl)-4-(4-hydroxy-3,5-dimethoxybenzylidene)-5-methyl-2,4-dihydro-3H-pyrazol-3-one]", "active in the assays described herein": "active"},
      {"smiles": "O=C1NC(=O)N(c2ccc(Cl)cc2)C(=O)C1=Cc1ccc([N+](=O)[O-])o1", "note": "[Compound 65, 1-(4-chlorophenyl)-5-[(5-nitro-2-furyl)methylene]-2,4,6(1H,3H,5H)-pyrimidinetrione]", "active in the assays described herein": "active"},
      {"smiles": "COc1ccc(C(=C2C=CC=C2)c2ccc(OC)cc2)cc1", "note": "[Compound 46, 1,1′-(2,4-cyclopentadien-1-ylidenemethylene)bis(4-methoxybenzene)]", "active in the assays described herein": "active"},
      {"smiles": "O=C(c1cccs1)N1CCN(c2ccc([N+](=O)[O-])c(N3CCCC3)c2)CC1", "note": "[Compound 114, 1-[4-nitro-3-(1-pyrrolidinyl)phenyl]-4-(2-thienylcarbonyl)piperazine]", "active in the assays described herein": "active"},
      {"smiles": "CCc1cc2c(=S)c(-c3ccccc3Cl)coc2cc1OC", "note": "[Compound 47, 3-(2-chlorophenyl)-6-ethyl-7-methoxy-4H-chromene-4-thione]", "active in the assays described herein": "active"},
      {"smiles": "O=C(c1ccc(Br)cc1)c1ccc(N2CCCCC2)c([N+](=O)[O-])c1", "note": "[Compound 92, (4-bromophenyl)[3-nitro-4-(1-piperidinyl)phenyl]methanone]", "active in the assays described herein": "active"},
      {"smiles": "O=C1c2ccc([N+](=O)[O-])cc2C(=O)N1C1CC2CCC1C2", "note": "(stereo not drawn) [Compound 57, 2-bicyclo[2.2.1]hept-2-yl-5-nitro-1H-isoindole-1,3(2H)-dione]", "active in the assays described herein": "active"},
      {"smiles": "CCc1ccc(N2N=C(C)C(=Cc3ccc(N4CCOCC4)cc3)C2=O)cc1", "note": "[Compound 32, 2-(4-ethylphenyl)-5-methyl-4-[4-(4-morpholinyl)benzylidene]-2,4-dihydro-3H-pyrazol-3-one]", "active in the assays described herein": "active"},
      {"smiles": "O=[N+]([O-])c1ccccc1SNc1ccc2c(c1)OCO2", "note": "[Compound 75, 5-{[(2-nitrophenyl)thio]amino}-1,3-benzodioxole]", "active in the assays described herein": "active"},
      {"smiles": "Cn1cccc1C=NN1CCN(Cc2cccc3ccccc23)CC1", "note": "[Compound 83, N-[(1-methyl-1H-pyrrol-2-yl)methylene]-4-(1-naphthylmethyl)-1-piperazinamine]", "active in the assays described herein": "active"}
    ]}
  ]
}
